# Assay results taken from PubChem BioAssay (NCI).
#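 Protocol summary: plate cells (96-well), add compound at 5 concentrations, incubate 48 h, interpolate endpoints linearly. GI50: concentration for 50% inhibition of growth. TGI marks complete inhibition of growth.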
# Columns and labels:
# Experiment in all cases: growth of human tumour cells (NCI), 48 h
# OVCAR-5 ovarian = tested on: OVCAR-5 ovarian
# TK-10 renal = tested on: TK-10 renal
# A549 NSCLC = tested on: A549 NSCLC
# HCT-116 colon = tested on: HCT-116 colon
# COLO 205 colon = tested on: COLO 205 colon
# NCI-H226 lung = tested on: NCI-H226 lung
# PC-3 prostate = tested on: PC-3 prostate
# T-47D breast = tested on: T-47D breast
# UO-31 renal = tested on: UO-31 renal
# SK-MEL-5 melanoma = tested on: SK-MEL-5 melanoma
# CCRF-CEM leukemia = tested on: CCRF-CEM leukemia
# UACC-62 melanoma = tested on: UACC-62 melanoma
# MCF7 breast = tested on: MCF7 breast
# K-562 leukemia = tested on: K-562 leukemia
# RPMI-8226 leukemia = tested on: RPMI-8226 leukemia
# SF-268 CNS = tested on: SF-268 CNS
# RXF 393 renal = tested on: RXF 393 renal
# HT29 colon = tested on: HT29 colon
# NCI-H460 lung = tested on: NCI-H460 lung
# UACC-257 melanoma = tested on: UACC-257 melanoma
# SN12C renal = tested on: SN12C renal
# OVCAR-8 ovarian = tested on: OVCAR-8 ovarian
# SF-295 CNS = tested on: SF-295 CNS
# NCI/ADR-RES ovarian = tested on: NCI/ADR-RES ovarian
# OVCAR-3 ovarian = tested on: OVCAR-3 ovarian
# OVCAR-4 ovarian = tested on: OVCAR-4 ovarian
# SW-620 colon = tested on: SW-620 colon
# NCI-H23 lung = tested on: NCI-H23 lung
# SR leukemia = tested on: SR leukemia
# KM12 colon = tested on: KM12 colon
# DU-145 prostate = tested on: DU-145 prostate
# SK-MEL-28 melanoma = tested on: SK-MEL-28 melanoma
# HCT-15 colon = tested on: HCT-15 colon
# CAKI-1 renal = tested on: CAKI-1 renal
# HOP-62 NSCLC = tested on: HOP-62 NSCLC
# HL-60(TB) leukemia = tested on: HL-60(TB) leukemia
# ACHN renal = tested on: ACHN renal
# BT-549 breast = tested on: BT-549 breast
# MDA-MB-231 breast = tested on: MDA-MB-231 breast
# M14 melanoma = tested on: M14 melanoma
# SNB-19 CNS = tested on: SNB-19 CNS
# EKVX NSCLC = tested on: EKVX NSCLC
# MDA-MB-468 breast = tested on: MDA-MB-468 breast
# HS 578T breast = tested on: HS 578T breast
# HCC-2998 colon = tested on: HCC-2998 colon
# NCI-H522 lung = tested on: NCI-H522 lung
# SK-MEL-2 melanoma = tested on: SK-MEL-2 melanoma
# IGROV1 ovarian = tested on: IGROV1 ovarian
# MOLT-4 leukemia = tested on: MOLT-4 leukemia
# MDA-MB-435 = tested on: MDA-MB-435
# SK-OV-3 ovarian = tested on: SK-OV-3 ovarian
# SF-539 CNS = tested on: SF-539 CNS
# SNB-75 CNS = tested on: SNB-75 CNS
# MALME-3M melanoma = tested on: MALME-3M melanoma
# LOX IMVI melanoma = tested on: LOX IMVI melanoma
# 786-0 renal = tested on: 786-0 renal
# U251 CNS = tested on: U251 CNS
smiles,measurement,setting,value
N#Cc1cc(-c2ccc3ncnc(N4CCc5cc(F)c(Cl)cc54)c3c2)cnc1N,GI50,OVCAR-5 ovarian,5.21 µM
same,TGI,OVCAR-5 ovarian,> 100 µM
same,GI50,TK-10 renal,993 nM
same,TGI,TK-10 renal,> 100 µM
same,GI50,A549 NSCLC,1880 nM
same,TGI,A549 NSCLC,> 100 µM
same,GI50,HCT-116 colon,2110 nM
same,TGI,HCT-116 colon,10.4 µM
same,GI50,COLO 205 colon,1900 nM
same,TGI,COLO 205 colon,> 100 µM
same,GI50,NCI-H226 lung,1380 nM
same,TGI,NCI-H226 lung,> 100 µM
same,GI50,PC-3 prostate,1750 nM
same,TGI,PC-3 prostate,> 100 µM
same,GI50,T-47D breast,1490 nM
same,TGI,T-47D breast,> 100 µM
same,GI50,UO-31 renal,278 nM
same,TGI,UO-31 renal,> 100 µM
same,GI50,SK-MEL-5 melanoma,3.03 µM
same,TGI,SK-MEL-5 melanoma,> 100 µM
same,GI50,CCRF-CEM leukemia,575 nM
same,TGI,CCRF-CEM leukemia,> 100 µM
same,GI50,UACC-62 melanoma,3.39 µM
same,TGI,UACC-62 melanoma,> 100 µM
same,GI50,MCF7 breast,532 nM
same,TGI,MCF7 breast,4.05 µM
same,GI50,K-562 leukemia,3.23 µM
same,TGI,K-562 leukemia,> 100 µM
same,GI50,RPMI-8226 leukemia,992 nM
same,TGI,RPMI-8226 leukemia,> 100 µM
same,GI50,SF-268 CNS,2310 nM
same,TGI,SF-268 CNS,> 100 µM
same,GI50,RXF 393 renal,316 nM
same,TGI,RXF 393 renal,2940 nM
same,GI50,HT29 colon,2650 nM
same,TGI,HT29 colon,> 100 µM
same,GI50,NCI-H460 lung,1900 nM
same,TGI,NCI-H460 lung,6.52 µM
same,GI50,UACC-257 melanoma,4.45 µM
same,TGI,UACC-257 melanoma,> 100 µM
same,GI50,SN12C renal,1050 nM
same,TGI,SN12C renal,11.2 µM
same,GI50,OVCAR-8 ovarian,2340 nM
same,TGI,OVCAR-8 ovarian,> 100 µM
same,GI50,SF-295 CNS,3.23 µM
same,TGI,SF-295 CNS,> 100 µM
same,GI50,NCI/ADR-RES ovarian,2410 nM
same,TGI,NCI/ADR-RES ovarian,> 100 µM
same,GI50,OVCAR-3 ovarian,1470 nM
same,TGI,OVCAR-3 ovarian,> 100 µM
same,GI50,OVCAR-4 ovarian,3.7 µM
same,TGI,OVCAR-4 ovarian,> 100 µM
same,GI50,SW-620 colon,2620 nM
same,TGI,SW-620 colon,> 100 µM
same,GI50,NCI-H23 lung,3.34 µM
same,TGI,NCI-H23 lung,> 100 µM
same,GI50,SR leukemia,1010 nM
same,TGI,SR leukemia,10 µM
same,GI50,KM12 colon,15.9 µM
same,TGI,KM12 colon,> 100 µM
same,GI50,DU-145 prostate,1490 nM
same,TGI,DU-145 prostate,> 100 µM
same,GI50,SK-MEL-28 melanoma,2810 nM
same,TGI,SK-MEL-28 melanoma,> 100 µM
same,GI50,HCT-15 colon,1680 nM
same,TGI,HCT-15 colon,> 100 µM
same,GI50,CAKI-1 renal,786 nM
same,TGI,CAKI-1 renal,> 100 µM
same,GI50,HOP-62 NSCLC,3.75 µM
same,TGI,HOP-62 NSCLC,> 100 µM
same,GI50,HL-60(TB) leukemia,422 nM
same,TGI,HL-60(TB) leukemia,> 100 µM
same,GI50,ACHN renal,850 nM
same,TGI,ACHN renal,> 100 µM
same,GI50,BT-549 breast,1230 nM
same,TGI,BT-549 breast,32.6 µM
same,GI50,MDA-MB-231 breast,2450 nM
same,TGI,MDA-MB-231 breast,9.48 µM
same,GI50,M14 melanoma,3.09 µM
same,TGI,M14 melanoma,> 100 µM
same,GI50,SNB-19 CNS,3.41 µM
same,TGI,SNB-19 CNS,> 100 µM
same,GI50,EKVX NSCLC,940 nM
same,TGI,EKVX NSCLC,> 100 µM
same,GI50,MDA-MB-468 breast,227 nM
same,TGI,MDA-MB-468 breast,880 nM
same,GI50,HS 578T breast,633 nM
same,TGI,HS 578T breast,7.71 µM
same,GI50,HCC-2998 colon,2070 nM
same,TGI,HCC-2998 colon,> 100 µM
same,GI50,NCI-H522 lung,3.34 µM
same,TGI,NCI-H522 lung,> 100 µM
same,GI50,SK-MEL-2 melanoma,17.1 µM
same,TGI,SK-MEL-2 melanoma,> 100 µM
same,GI50,IGROV1 ovarian,365 nM
same,TGI,IGROV1 ovarian,3.01 µM
same,GI50,MOLT-4 leukemia,1630 nM
same,TGI,MOLT-4 leukemia,11.4 µM
same,GI50,MDA-MB-435,4.15 µM
same,TGI,MDA-MB-435,29.8 µM
same,GI50,SK-OV-3 ovarian,2920 nM
same,TGI,SK-OV-3 ovarian,> 100 µM
same,GI50,SF-539 CNS,1870 nM
same,TGI,SF-539 CNS,> 100 µM
same,GI50,SNB-75 CNS,838 nM
same,TGI,SNB-75 CNS,> 100 µM
same,GI50,MALME-3M melanoma,2930 nM
same,TGI,MALME-3M melanoma,45.5 µM
same,GI50,LOX IMVI melanoma,1600 nM
same,TGI,LOX IMVI melanoma,16.9 µM
same,GI50,786-0 renal,435 nM
same,TGI,786-0 renal,21.9 µM
same,GI50,U251 CNS,2710 nM
same,TGI,U251 CNS,> 100 µM
